Assay results: PubChem BioAssay AID248 (DTP/NCI, 2004)
“And” between values parts separate entries of the source, which are not always exact repeats. Identical values can stand only once. Inconclusive results and toxic doses are left out. Cut-off read from the data, not from the text of the source: active = T/C of 150% or more; inactive = T/C below 125%.

System: L1210 leukemia ip in BDF1 mice, survival T/C
Assay: NCI In Vivo Anticancer Drug Screen. Data for tumor model L1210 Leukemia (intraperitoneal) in B6D2F1 (BDF1) mice
Settings: endpoint: mean survival time, higher = longer survival
Procedure, shortened: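 Transplantable tumor model; survival measured in treated vs vehicle control mice. Value = treated/control.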

[1] = dose: 50.0 mg/kg/injection, schedule: Q04DX003 (ip), vehicle: saline
[2] = dose: 100.0 mg/kg/injection, schedule: Q04DX003 (ip), vehicle: saline
[3] = dose: 200.0 mg/kg/injection, schedule: Q04DX003 (ip), vehicle: saline
[4] = dose: 400.0 mg/kg/injection, schedule: Q04DX003 (ip), vehicle: saline
[5] = dose: 100.0 mg/kg/injection, schedule: Q01DX009 (ip), vehicle: saline with Tween-80
[6] = dose: 100.0 mg/kg/injection, schedule: Q04DX003 (ip), vehicle: saline with Tween-80
[7] = dose: 200.0 mg/kg/injection, schedule: Q04DX003 (ip), vehicle: saline with Tween-80
[8] = dose: 400.0 mg/kg/injection, schedule: Q04DX003 (ip), vehicle: saline with Tween-80
[9] = dose: 100.0 mg/kg/injection, schedule: Q01DX001 (ip), vehicle: saline
[10] = dose: 200.0 mg/kg/injection, schedule: Q01DX001 (ip), vehicle: saline
[11] = dose: 400.0 mg/kg/injection, schedule: Q01DX001 (ip), vehicle: saline
[12] = dose: 25.0 mg/kg/injection, schedule: Q01DX009 (ip), vehicle: water
[13] = dose: 50.0 mg/kg/injection, schedule: Q01DX009 (ip), vehicle: water

Measured: T/C

CCC1(CC)NC(=O)N(CCOS(C)(=O)=O)C1=O
inactive: [1] 95 % of control | [2] 115 % of control | [3] 101 % of control | [4] 100 % of control

COC(=O)c1cc(=O)c2c(=O)[nH]c(=O)[nH]c2[nH]1
inactive: dose: 100.0 mg/kg/injection, schedule: Q04DX003 (ip), vehicle: Klucel (hydroxypropylcellulose) (HPC) 101 % of control | dose: 200.0 mg/kg/injection, schedule: Q04DX003 (ip), vehicle: Klucel (hydroxypropylcellulose) (HPC) 95 % of control | dose: 400.0 mg/kg/injection, schedule: Q04DX003 (ip), vehicle: Klucel (hydroxypropylcellulose) (HPC) 100 % of control

CCn1cnc2c(SC3CCCC3)ncnc21
inactive: dose: 15.0 mg/kg/injection, schedule: Q01DX015 (ip), vehicle: carboxymethylcellulose (CMC) 96 % of control | dose: 30.0 mg/kg/injection, schedule: Q01DX015 (ip), vehicle: carboxymethylcellulose (CMC) 104 % of control | dose: 62.0 mg/kg/injection, schedule: Q01DX015 (ip), vehicle: carboxymethylcellulose (CMC) 110 % of control | dose: 62.0 mg/kg/injection, schedule: Q01DX Z (ip), vehicle: carboxymethylcellulose (CMC) 95 % of control | dose: 125.0 mg/kg/injection, schedule: Q01DX015 (ip), vehicle: carboxymethylcellulose (CMC) 124 % of control | dose: 125.0 mg/kg/injection, schedule: Q01DX Z (ip), vehicle: carboxymethylcellulose (CMC) 113 % of control | dose: 500.0 mg/kg/injection, schedule: Q01DX Z (ip), vehicle: carboxymethylcellulose (CMC) 101 % of control

Cc1cc2ncn(CC(=O)NN)c2cc1C
inactive: [5] 86 % of control | [6] 92 % of control | [7] 95 % of control | [8] 92 % of control

O=C(Nc1ccc(Nc2ccccc2)cc1)Nc1ccccc1F
inactive: dose: 100.0 mg/kg/injection, schedule: Q01DX009 (ip), vehicle: Klucel (hydroxypropylcellulose) (HPC) 97 % of control | dose: 200.0 mg/kg/injection, schedule: Q01DX009 (ip), vehicle: Klucel (hydroxypropylcellulose) (HPC) 95 % of control | dose: 400.0 mg/kg/injection, schedule: Q01DX009 (ip), vehicle: Klucel (hydroxypropylcellulose) (HPC) 97 % of control

[S-]c1n[n+](-c2ccccc2)cs1
inactive: [9] 97 % of control | [10] 95 % of control | [11] 92 % of control

CN=C(N)Nc1ccc(C(=O)Oc2ccc([N+](=O)[O-])cc2)cc1
inactive: [12] 112 % of control | [13] 102 % of control

O=C(O)CNC1CSSC1
inactive: [12] 106 % of control | [13] 106 % of control

O=S(=O)(/N=C1/c2ccccc2/C(=N/S(=O)(=O)c2ccccc2)C2CC=CCC12)c1ccccc1 (stereo not given)
inactive: dose: 25.0 mg/kg/injection, schedule: Q01DX001 (ip), vehicle: saline sonified 94 % of control | dose: 50.0 mg/kg/injection, schedule: Q01DX001 (ip), vehicle: saline sonified 95 % of control | dose: 100.0 mg/kg/injection, schedule: Q01DX001 (ip), vehicle: saline sonified 92 % of control

COC(=O)C(N)CSCc1ccccc1 (stereo not given)
inactive: [2] 87 % of control | [3] 89 % of control | [4] 94 % of control

CCc1ccc(/C(C#N)=C/c2ccc(N(C)CCC#N)cc2)cc1
inactive: dose: 12.5 mg/kg/injection, schedule: Q01DX009 (ip), vehicle: Klucel (hydroxypropylcellulose) (HPC) 95 % of control | dose: 25.0 mg/kg/injection, schedule: Q01DX009 (ip), vehicle: Klucel (hydroxypropylcellulose) (HPC) 95 % of control | dose: 50.0 mg/kg/injection, schedule: Q01DX009 (ip), vehicle: Klucel (hydroxypropylcellulose) (HPC) 94 % of control

CN=C(N)c1ccc(NC(=O)Nc2ccc(NC(=O)Nc3ccc(C(N)=NC)cc3)cc2)cc1
inactive: dose: 50.0 mg/kg/injection, schedule: Q01DX Z (oral), vehicle: saline 95 % of control | dose: 100.0 mg/kg/injection, schedule: Q01DX Z (oral), vehicle: saline 89 % of control | dose: 200.0 mg/kg/injection, schedule: Q01DX Z (oral), vehicle: saline 95 % of control | dose: 240.0 mg/kg/injection, schedule: Q01DX Z (ip), vehicle: saline 108 % of control | dose: 400.0 mg/kg/injection, schedule: Q01DX Z (oral), vehicle: saline 96 % of control | dose: 480.0 mg/kg/injection, schedule: Q01DX Z (ip), vehicle: saline 90 % of control
active: dose: 60.0 mg/kg/injection, schedule: Q01DX Z (ip), vehicle: saline 157 % of control | dose: 120.0 mg/kg/injection, schedule: Q01DX Z (ip), vehicle: saline 205 % of control

O=C1NC(=O)C(CO)(CO)N1
inactive: dose: 12.5 mg/kg/injection, schedule: Q04DX003 (ip), vehicle: saline 110 % of control | dose: 25.0 mg/kg/injection, schedule: Q04DX003 (ip), vehicle: saline 97 % of control | [1] 100 % of control | dose: 100.0 mg/kg/injection, schedule: Q01DX009 (ip), vehicle: saline 110 % of control | [2] 121 % of control | dose: 200.0 mg/kg/injection, schedule: Q01DX009 (ip), vehicle: saline 107 % of control | [3] 103 % of control | dose: 400.0 mg/kg/injection, schedule: Q01DX009 (ip), vehicle: saline 113 % of control | [4] 105 % of control

CN(C)/C=N/NC(=O)C1CC1
inactive: [2] 100 % of control | [3] 97 % of control | [4] 107 % of control

COC(=O)C(C)[P+](c1ccccc1)(c1ccccc1)c1ccccc1 (stereo not given)
inactive: dose: 1.25 mg/kg/injection, schedule: Q01DX009 (ip), vehicle: saline 108 % of control | dose: 1.65 mg/kg/injection, schedule: Q01DX009 (ip), vehicle: saline 104 % of control and 114 % of control | dose: 2.5 mg/kg/injection, schedule: Q01DX001 (ip), vehicle: saline 96 % of control | dose: 2.5 mg/kg/injection, schedule: Q01DX009 (ip), vehicle: saline 107 % of control and 119 % of control | dose: 3.75 mg/kg/injection, schedule: Q01DX009 (ip), vehicle: saline 109 % of control and 110 % of control | dose: 5.0 mg/kg/injection, schedule: Q01DX001 (ip), vehicle: saline 110 % of control | dose: 5.0 mg/kg/injection, schedule: Q01DX009 (ip), vehicle: saline 97 % of control

Nc1nc(N)c2nc(COc3ccccc3)cnc2n1
inactive: dose: 20.0 mg/kg/injection, schedule: Q01DX009 (ip), vehicle: Klucel (hydroxypropylcellulose) (HPC) 98 % of control | dose: 40.0 mg/kg/injection, schedule: Q01DX009 (ip), vehicle: Klucel (hydroxypropylcellulose) (HPC) 107 % of control | dose: 80.0 mg/kg/injection, schedule: Q01DX009 (ip), vehicle: Klucel (hydroxypropylcellulose) (HPC) 107 % of control

Cc1cc2nc(CBr)c(CBr)nc2cc1C
inactive: dose: 3.12 mg/kg/injection, schedule: Q01DX009 (ip), vehicle: acetone 100 % of control | dose: 6.25 mg/kg/injection, schedule: Q01DX009 (ip), vehicle: acetone 94 % of control | dose: 6.25 mg/kg/injection, schedule: Q04DX003 (ip), vehicle: Klucel (hydroxypropylcellulose) (HPC) 95 % of control | dose: 12.5 mg/kg/injection, schedule: Q04DX003 (ip), vehicle: Klucel (hydroxypropylcellulose) (HPC) 101 % of control | dose: 12.5 mg/kg/injection, schedule: Q04DX003 (ip), vehicle: saline with Tween-80 98 % of control | dose: 25.0 mg/kg/injection, schedule: Q04DX003 (ip), vehicle: Klucel (hydroxypropylcellulose) (HPC) 93 % of control

O=C(Nc1ccccc1)OC1CCCC2CCC21 (stereo not given)
inactive: [9] 97 % of control | [10] 90 % of control | [11] 90 % of control

N#Cc1ccc2c(c1)C([P+](c1ccccc1)(c1ccccc1)c1ccccc1)c1ccccc1-2 (stereo not given)
inactive: dose: 75.0 mg/kg/injection, schedule: Q01DX001 (ip), vehicle: carboxymethylcellulose (CMC) 88 % of control | dose: 300.0 mg/kg/injection, schedule: Q01DX001 (ip), vehicle: carboxymethylcellulose (CMC) 92 % of control

Oc1ccc2ccccc2c1C=Nc1ccccc1
inactive: dose: 100.0 mg/kg/injection, schedule: Q01DX001 (ip), vehicle: other 91 % of control | dose: 200.0 mg/kg/injection, schedule: Q01DX001 (ip), vehicle: other 98 % of control | dose: 400.0 mg/kg/injection, schedule: Q01DX001 (ip), vehicle: other 96 % of control

CCOC(=O)/C(C#N)=C\c1cc(OC)ccc1OC
inactive: [5] 101 % of control | [6] 96 % of control | [7] 94 % of control | [8] 93 % of control
